Data as given in patent US5508301A, “Ketorolac derivatives with considerably reduced gastro-intestinal irritation and ulceration” (Roemmers S.A.I.C.F., priority 1993, dated 1996).
Structures can show the parent of a compound that is named as a salt. Where two headings read alike, the source gives them in different places.

Tests used:
[1] = Comparison tests as regards the undesired side effects, overall statement; conditions: test not shown in the table; compared with 2-(1-pyrrolidinyl)ethyl ester
rat = conditions: LD50, species not stated in the sentence itself
[2] = Antipyretic effect: temperature increase by beer yeast, rectal temperature, oral administration; format: in vivo; conditions: p.o., rat, rectal temperature 5, 6, 7 and 8 hours after administration, read-out: Antipyretic Effect p.o. of 50
Method: (§1) The antipyretic effect was determined by increasing the rat's temperature by means of beer yeast by 20% and the rectal temperature of the rat was measured 5, 6, 7 and 8 hours after the administration. The percentage of increase compared to the comparison sample was measured.

in vivo [3] = conditions: mouse, po, read-out: Acute Toxicity p.o. LD50 (mg/kg) in the mouse
[4] = rat, in vivo
in vivo [5] = conditions: rat, po
[6] = rat, in vivo; remark: listed apart in the source
[7] = rat, in vivo; remark: listed apart in the source
Method: The ulceration effect was determined in three groups of 6 rats each. […] The ulceration effect was evaluated microscopically by means of an ulceration index which corresponds to the sum of evaluations of each animal, multiplied by the percentage of animals above null, divided by the total number of animals (0=normal; 1=minor haemorrhages; 2=considerable haemorrhages; 3=small ulcus; 4=large ulcus, more than 2 mm; 5=perforated ulcus).
The same animals were examined for the degree of injury probability of stomach tissue by means of a microscopic quantification of different degrees of lesions: no change, haemorrhages, necrosis.

[8] = rat, in vivo; remark: listed apart in the source
[9] = Comparison tests as to the pharmacological effect (analgetic/antiphlogistic and antipyretic), overall statement; format: in vivo, rat; conditions: B compared with A; C compared with pyrrolidine ester
Method: The analgetic effect was measured by the test of inhibition of the contortions generated by peritoneal administration of 0.1 ml acetic acid (3%).
The antiinflammatory effect was evaluated by the Paw-Edema method in which carragenin (1%) was used and the percentage of the decrease of the volume increase was measured at the Paw of the rat.
as §1

Compound | undesired side effects, in words [1] | acute toxicity, in words (rat) | acute toxicity, in words (rat; listed as ketorolac trometamole salt) | ED50 [2] | LD50 (in vivo [3]) | Possibility of Injuries of Stomach Tissue: animals with haemorrhages [4] | Possibility of Injuries of Stomach Tissue: animals with necrosis [4] | Possibility of Injuries of Stomach Tissue: animals without changes [4] | test of possible injuries of stomach tissue, in words [4] | LD50 (in vivo [5]) | destruction index of the gastric mucosa, in words [6] | undesired side effects compared with trometamole salt of ketorolac, in words [7] | acute toxicity, in words (rat; listed as oxalate of 2-(1-pyrrolidinyl)ethyl ester of ketorolac) | ulceration index relative to that detected with (A) [8] | pharmaceutical/pharmacological effect (analgetic/antiphlogistic and antipyretic), in words [9] | ulceration index relative to that of 2-(1-pyrrolidinyl)ethyl ester [8]
O=C(c1ccccc1)c1ccc2n1CCC2C(=O)OCCN1CCCCC1 (centres unmarked) [2-(1-piperidinyl)ethyl ester] | the said advantages will not be obtained | – | – | – | – | – | – | – | – | – | – | – | – | – | – | –
O=C(c1ccccc1)c1ccc2n1CCC2C(=O)OCCN1CCOCC1 (centres unmarked) [2-(4-morpholinyl)ethyl ester] | the said advantages will not be obtained | – | – | – | – | – | – | – | – | – | – | – | – | – | – | –
O=C(c1ccccc1)c1ccc2n1CCC2C(=O)O (centres unmarked) [A] | – | acceptable acute toxicity | comparable and acceptable | ~3 mg/kg | 118 mg/kg | 2 animals | 4 animals | 0 animals | all show haemorrhages or necrosis | 105 mg/kg | – | – | – | – | – | –
O=C(c1ccccc1)c1ccc2n1CCC2C(=O)OCCN1CCCC1 (centres unmarked) [B, oxalate of 2-(1-pyrrolidinyl)ethyl ester of ketorolac] | – | acceptable acute toxicity | – | > 3 mg/kg | 93 mg/kg | 0 animals | 0 animals | 6 animals | all animals remain unchanged | 235 mg/kg | considerably lower than with (A) | considerably less undesired side effects than the trometamole salt of ketorolac | comparable and acceptable | merely one third of that detected with (A) | – | –
CCN(CC)CCOC(=O)C1CCn2c(C(=O)c3ccccc3)ccc21 (centres unmarked) [C, maleate of 2-(diethylamino)ethyl ester of ketorolac] | – | comparable and acceptable | – | ~3 mg/kg | 198 mg/kg | 0 animals | 5 animals | 1 animals | much greater with the former than with the latter | – | – | – | – | – | practically the same | twice as high as that of 2-(1-pyrrolidinyl)ethyl ester
